Measured values from article PMC4549708, “Inhibition of neuraminidase by Ganoderma triterpenoids and implications for neuraminidase inhibitor design” (Scientific Reports, 2015).
Where two headings read alike, the source gives them in different places.

Experiments:
NA (H7N9) = assay type: biochemical; details: 200 µM
NA (H5N1) [1] = target: T1, NA (H5N1) (Influenza A virus, UniProt K0C216); assay: biochemical; details: for Inhibition rate (%) NA (H5N1): 200 µM; for inhibition at 200 µM: read-out: Inhibition rate (%) NA (H5N1)
NA (H1N1,09) = NA (H1N1,09) (Influenza A virus, UniProt C3W5S3); assay: biochemical; details: for Inhibition rate (%) NA(H1N1,09) / inhibition at 200 µM: 200 μM of each compound, n = 3, means ± standard deviation; for IC50: in vitro NA inhibition assay (n = 3); for inhibition at 200 µM: read-out: Inhibition rate (%) NA(H1N1,09)
[2] = tested on: MDCK cells (Madin-Darby Canine Kidney cells)
NA (H5N1) [3] = target: T1, NA (H5N1); assay type: biochemical, Influenza A virus A/Hubei/1/2011(H5N1)
Influenza B (B/Lee/40) = assay: microbe, parasite or virus in culture; assay type: cell-based
[4] = tested on: influenza A H1N1 (A/WSN/33); details: cellular assay; cited from earlier work
in vitro [5] = details: human
in vitro [6] = details: dog
[7] = tested on: H5N2 (A/Duck/Pennsylvania/84); assay: microbe, parasite or virus in culture; assay type: cell-based; details: unidentified influenza virus, H5N2, MDCK

| Molecule | Inhibition rate (%) NA(H7N9) (NA (H7N9)) [%] | Inhibition rate (%) NA (H5N1) (NA (H5N1) [1]) [%] | CC50 (MCF7 cells) [µM] | Inhibition rate (%) NA(H1N1,09) (NA (H1N1,09)) [%] | CC50 (in vitro [5]) [µM] | inhibition at 200 µM (NA (H5N1) [1]) [%] | inhibition at 200 µM (NA (H1N1,09)) [%] | other results |
| --- | --- | --- | --- | --- | --- | --- | --- | --- |
| C/C(=C\[C@@H](O)C[C@@H](C)[C@H]1CC(=O)[C@@]2(C)C3=C(C(=O)C[C@]12C)[C@@]1(C)CC[C@H](O)C(C)(C)[C@@H]1CC3=O)C(=O)O [Compound 22, Ganoderic acid Zeta] | 17.7 ± 2.4 | 0.0 | > 200 | 35.9 ± 5.3 | – | – | – | – |
| CC(=O)O[C@H]1C[C@H]([C@H](C)CC/C=C(\C)C(=O)O)[C@@]2(C)CC=C3C(=CC[C@H]4C(C)(C)C(=O)CC[C@]34C)[C@]12C [Compound 1, Ganoderic acid T-Q] | 27.4 ± 1.2 | 94.4 ± 0.4 | 28.2 ± 0.8 | 81.7 ± 1.7 | – | – | – | CC50 [2]: 41.1 µM; Kiu (ESI dissociation constant) (NA (H5N1) [3]): 17.39; higher affinity to free NA than to the NA-substrate complex (NA (H5N1) [3]): 2.5 fold; mode of inhibition (NA (H5N1) [3]): mixed inhibition mode; IC50 (NA (H5N1) [1]): 1.2 ± 1 µM; IC50 (NA (H1N1,09)): 5.6 ± 1.9 µM; IC50 (Influenza B (B/Lee/40); read-out: IC50): 190 µM |
| C/C(=C/CC[C@@H](C)[C@H]1CC[C@@]2(C)C3=CC[C@H]4C(C)(C)C(=O)CC[C@]4(C)C3=CC[C@]12C)C(=O)O [Compound 4, Ganoderic acid Sz] | 17.8 ± 4.0 | 0.0 | 50.6 ± 0.1 | 60.1 ± 4.8 | – | – | – | IC50 (NA (H1N1,09)): 101 ± 35.9 µM |
| C/C(=C\C(=O)CC(C)C(=O)O)C1CC(O)C2(C)C3=C(C(=O)CC12C)C1(C)CCC(O)C(C)(C)C1CC3O (stereo not shown) [Compound 16, Ganoderenic acid C] | 27.2 ± 0.5 | 30.6 ± 4.5 | > 200 | 27.9 ± 0.3 | – | – | – | – |
| CC(=O)O[C@H]1C[C@H]([C@H](C)CC/C=C(\C)C(=O)O)[C@@]2(C)CC=C3C(=CC[C@H]4C(C)(C)[C@@H](O)CC[C@]34C)[C@]12C [Compound 3, Ganoderic acid T-N] | 25.6 ± 1.6 | 91.1 ± 0.8 | 24.4 ± 2.4 | 72.0 ± 5.5 | – | – | – | IC50 (NA (H5N1) [1]): 2.7 ± 0.4 µM; IC50 (NA (H1N1,09)): 42 ± 13.5 µM |
| CC(=CCC[C@@H](C)[C@H]1CC[C@@]2(C)C3=CC[C@H]4C(C)(C)[C@@H](O)CC[C@]4(C)C3=CC[C@]12C)CO [ganodermadiol] | – | – | – | – | – | – | – | IC50 [4]: > 220 µM |
| CC(CC(=O)C[C@@H](C)[C@H]1CC(=O)[C@@]2(C)C3=C(C(=O)C[C@]12C)[C@@]1(C)CC[C@H](O)C(C)(C)[C@@H]1C[C@@H]3O)C(=O)O (stereo partly shown) [Compound 14, Ganoderic acid B] | 5.5 ± 0.4 | – | – | – | > 200 | 3 ± 1 | 6.9 ± 6.8 | – |
| C[C@H](CC(=O)C[C@@H](C)[C@H]1CC(=O)[C@@]2(C)C3=C(C(=O)C[C@]12C)[C@@]1(C)CCC(=O)C(C)(C)[C@@H]1C[C@@H]3O)C(=O)O [Compound 19, Ganoderic acid C1] | 26.2 ± 4.1 | – | – | – | > 200 | 43.3 ± 6.1 | 21.1 ± 4.1 | – |
| C/C(=C/CC[C@@H](C)[C@H]1CC[C@@]2(C)C3=CC[C@H]4C(C)(C)C(=O)CC[C@]4(C)C3=CC[C@]12C)C(=O)O [Compound 5, Ganoderic acid S] | 31.9 ± 2.3 | – | – | – | 80.9 ± 6.8 | 86.7 ± 0.5 | 69.4 ± 2.3 | IC50 (NA (H1N1,09)): 80.5 ± 24.9 µM |
| CC(CC(=O)C[C@@](C)(O)C1=C[C@H](O)[C@]2(C)[C@]1(C)C(=O)C=C1[C@@]3(C)CCC(=O)C(C)(C)[C@@H]3C[C@H]3O[C@@]132)C(=O)O (stereo partly shown) [applanoxidic acid G] | – | – | – | – | – | – | – | IC50 [4]: 190 µM |
| Ganoderenic acid D [Compound 17] | 35.9 ± 2.8 | 74.2 ± 2.2 | > 200 | 50.4 ± 3.0 | – | – | – | IC50 (NA (H5N1) [1]): 123 ± 22.5 µM |
| C/C(=C\CC[C@@H](C)[C@H]1CC[C@@]2(C)C3=C(CC[C@]12C)[C@@]1(C)CCC(=O)C(C)(C)[C@@H]1CC3=O)C(=O)O [Compound 20, Ganoderic acid DM] | 29.4 ± 3.8 | – | – | – | > 200 | 55.2 ± 0.7 | 50.4 ± 1.5 | – |
| C/C(=C\CC[C@@H](C)[C@H]1CC[C@@]2(C)C3=C(CC[C@]12C)[C@@]1(C)CC[C@H](O)C(C)(C)[C@@H]1CC3=O)CO [lucidadiol] | – | – | – | – | – | – | – | IC50 [4]: 220 µM |
| CC(=O)O[C@@H]1C(=O)C2=C(C(=O)C[C@H]3C(C)(C)[C@@H](O)CC[C@]23C)[C@]2(C)C(=O)C[C@H]([C@H](C)CC(=O)CC(C)C(=O)O)[C@@]12C (stereo partly shown) [Compound 13, Ganoderic acid H] | 27.2 ± 3.2 | – | – | – | > 200 | 64.1 ± 4.5 | 35 ± 4.5 | – |
| C/C(=C\CC[C@@H](C)[C@H]1CC[C@@]2(C)C3=CC[C@H]4C(C)(C)[C@@H](O)CC[C@]4(C)C3=CC[C@]12C)C(=O)O [Compound 6, Ganoderic acid Y] | 17.8 ± 1.5 | – | – | – | 18 ± 1.3 | 78.2 ± 3.2 | 63 ± 2.5 | – |
| C/C(=C\CC[C@@H](C)[C@H]1C[C@H](O)[C@@]2(C)C3=CC[C@H]4C(C)(C)C(=O)CC[C@]4(C)C3=CC[C@]12C)C(=O)O [Compound 2, Ganoderic acid TR] | 24.0 ± 1.8 | – | – | – | 91.6 ± 3.4 | 96.5 ± 0.3 | – | CC50 (in vitro [6]): 299 µM; IC50 (Influenza B (B/Lee/40); Influenza B virus, MDCK): 166 µM; IC50 [7]: 324 µM |
| CC(CC(=O)C[C@@H](C)[C@H]1CC(=O)[C@@]2(C)C3=C(C(=O)[C@@H](O)[C@]12C)[C@@]1(C)CC[C@H](O)C(C)(C)[C@@H]1CC3=O)C(=O)O (stereo partly shown) [Compound 18, Ganoderic acid C6] | 25.7 ± 1.3 | – | – | – | > 200 | 15.6 ± 22.3 | 17.8 ± 1.2 | – |
| CC(CC(=O)C[C@@H](C)[C@H]1CC(=O)[C@@]2(C)C3=C(C(=O)C[C@]12C)[C@@]1(C)CC[C@H](O)C(C)(C)[C@@H]1CC3=O)C(=O)O (stereo partly shown) [Compound 10, Ganoderic acid AM1] | 14.1 ± 5.1 | – | – | – | > 200 | 75.2 ± 2.3 | 28.3 ± 6.2 | – |
| C/C(=C\CC[C@@H](C)[C@H]1CC[C@@]2(C)C3=CC[C@H]4C(C)(C)[C@@H](O)CC[C@]4(C)C3=CC[C@]12C)CO [Compound 26, Ganoderol B] | 21.8 ± 3.5 | – | – | – | > 200 | 71.6 ± 2.1 | 51 ± 2.6 | – |
| CC(CC(=O)C[C@@H](C)[C@H]1C[C@H](O)[C@@]2(C)C3=C(C(=O)C[C@]12C)[C@@]1(C)CCC(=O)C(C)(C)[C@@H]1CC3)C(=O)O (stereo partly shown) [Compound 21, Ganolucidic acid A] | 16.7 ± 3.4 | – | – | – | > 200 | 49.8 ± 7.7 | 19.4 ± 2.7 | – |
| C/C(C=O)=C\CC[C@@H](C)[C@H]1CC[C@@]2(C)C3=CC[C@H]4C(C)(C)[C@@H](O)CC[C@]4(C)C3=CC[C@]12C [Compound 30, Lucialdehyde A] | 24.5 ± 1.6 | 67.1 ± 5.7 | 34.7 ± 5.5 | 57.6 ± 1.7 | – | – | – | IC50 (NA (H5N1) [1]): 164 ± 18 µM |
| C/C(=C\CC[C@@H](C)[C@H]1CC[C@@]2(C)C3=CC[C@H]4C(C)(C)C(=O)CC[C@]4(C)C3=CC[C@]12C)CO [Compound 25, Ganoderol A] | 15.9 ± 3.7 | – | – | – | 20.4 ± 0.9 | 77.1 ± 0.4 | 48.3 ± 2.2 | – |
